US10327447B2, “Phosphonate functional antimicrobial coatings for metal surfaces” (NANO SAFE COATINGS INCORPORATED, priority 2013, dated 2019)

Legend:
[1] = system: Pseudomonas PA01; test: Contact killing on treated stainless steel coupons (large droplet inoculation); type: cell-based, Pseudomonas aeruginosa PA01; settings: in as little as four hours
[2] = system: Escherichia coli; test: as above; type: cell-based; settings: for change in colony forming units (cfu): in as little as four hours
[3] = system: Salmonella enteriditis; test: as above; type: cell-based; settings: in as little as four hours
[4] = system: Listeria monocytogenes; test: as above; type: cell-based
[5] = system: Pseudomonas sp. CT07; test: as above; type: cell-based; settings: in as little as four hours
[6] = system: Arthrobacter; test: as above; type: cell-based; settings: in as little as four hours
[7] = system: Staphylococcus aureus; test: as above; type: cell-based; settings: in as little as four hours
[8] = system: Klebsiella pneumonia; test: as above; type: cell-based; settings: in as little as four hours
[9] = system: S. aureus; test: Contact killing on treated titanium coupons; type: cell-based; settings: after three hours of drying on the titanium surface
Protocol: (§1) A one inch by inch TiO2 square was sanded with 600 grain size sand paper, followed by an ethanol (EtOH) rinse. Samples were stored in a 120° C. oven prior to use. A 10 mM solution of compound 3 in EtOH was aerosol spayed onto the TiO2 square, allowed to air dry and placed into 120° C. oven overnight to anneal the compound followed by an EtOH rinse. Spaying, annealing and rinsing were repeated two more times.
(§2) The following bacteria were tested: Pseudomonas sp. CT07, Salmonella enteriditis, Klebsiella pneumonia, Listeria monocytogenes, Arthrobacter, Staphylococcus aureus, Pseudomonas aeruginosa PA01 and Escherichia coli. The preparation of the inoculant was performed by growing overnight cultures (10^5-10^8 cfu/ml) in 10% tryptic soy broth at room temperature and with agitation. The cells were then washed from the broth by using a centrifuge at 9000×g for 2 minutes. This step was performed to remove a nutrition source for the bacteria during the test phase.
(§3) Stainless steel coupons were treated by overnight immersion in a 1% ethanolic solution (aqueous solutions may also be used) of antimicrobial phosphonate and an overnight cure at 100° C. Untreated control (“C”), compound 2 (“S1”), compound 3 (“S2”) and Bio-Protect® AM500 silicone quaternary ammonium salt (N-(3-(trimethoxy)silylpropyl)-N,N-dimethyloctadecan-1-ammonium chloride) treated (“BSC”) stainless steel coupons were then inoculated with 0.1 mL of the overnight bacterial inoculant and were then placed in a fumehood to allow the samples to dry for 2 hours. After the appropriate time lapse the coupons were then placed into a 10 mL tube of sterile 0.9% saline and vigorously vortexed for a minute to remove the adherent cells. A dilution series was made from this solution and the series was plated onto 10% tryptic soy agar plates for enumeration. This was again repeated after 4 hours, 6 hours and 24 hours of drying.
(§4) Titanium metal coupons were treated similarly as above and tested for antibacterial activity against Salmonella and S. aureus.

[10] = system: Salmonella; test: Contact killing on treated titanium coupons; type: cell-based; settings: after three hours of drying on the titanium surface
Protocol: as §1, §2, §3, §4

[11] = system: bacterial strains; settings: strain not stated; cited from earlier work
[12] = system: Staphylococcus aureus; test: Minimum inhibitory concentration determination; type: cell-based
From the text: Test organisms included gram-positive and gram-negative bacterial strains: Staphylococcus aureus, Listeria monocytogenes, Salmonella interiditis, and Escherichia coli.

[13] = system: Escherichia coli; test: Minimum inhibitory concentration determination; type: cell-based; settings: 1% stock solution in H2O, stabilized or no stabilizer
Protocol: (§5) Solutions of phosphonate antimicrobials (0.01 g/mL or 1%) were dissolved in H2O or ethanol, inoculated with the test organism and serially diluted from 10^−1-10^−3, representing a dilution range from 0.01 g/mL to 0.00001 g/mL, followed by plate counts to determine the minimum inhibitory concentration (MIC) values. Test organisms included gram-positive and gram-negative bacterial strains: Staphylococcus aureus, Listeria monocytogenes, Salmonella interiditis, and Escherichia coli.
(§6) Sample 1 was a 1% solution of compound 3; sample 2 was 1% solution of the sodium salt of compound 3; sample 3 was a 1% solution of compound 3 prepared by HCl dealkylation of N-(3-diisopropoxyphosphorylpropyl)-N,N-dimethyloctadecan-1-ammonium bromide.

[14] = system: Listeria monocytogenes; test: Minimum inhibitory concentration determination; type: cell-based; settings: 1% stock solution in H2O, stabilized or no stabilizer
Protocol: as §5, §6

[15] = system: Salmonella interiditis; test: Minimum inhibitory concentration determination; type: cell-based; settings: 1% stock solution in H2O, stabilized or no stabilizer
Protocol: as §5, §6

[16] = system: P. aeroguinosa; test: Agar testing of treated titanium coupons; type: cell-based; settings: titanium coupons affixed to agar petri dishes; control fully colonized
From the text: The titanium coupon samples were subjected to agar testing in which the samples were affixed to agar petri dishes and inoculated with P. aeroguinosa.

[17] = system: Arthrobacter; test: Antimicrobial surface treatment durability (retest after saline storage); type: cell-based; settings: treated titanium coupons stored in saline for 24 hours, washed, dried, re-innoculated
Protocol: Titanium metal coupons treated with compound 2 as in Example 28 were further tested for surface treatment durability. The treated coupons were stored in saline for 24 hours from the first antimicrobial trial, removed, dried, washed with distilled H2O, dried re-innoculated with Arthrobacter and retested.

`CCCCCCCCCCCCCCCCCC[N+](C)(C)CCCP(=O)(OC(C)C)OC(C)C.[Br-]` gave a melting point of 54 to 55 °C.

For `CCCCCCCCCCCCCCCCCC[N+](C)(C)CCCP(=O)(O)O` [compound 3, N-(3-phosphonopropyl)-N,N-dimethyloctadecan-1-ammonium Bromide], the “change in colony forming units (cfu)” value [1] was “eradication”, the “change in colony forming units (cfu)” value [2] was “eradication” and the “change in colony forming units (cfu)” value [3] was “eradication”. The melting point was 118 to 120 °C, the “antibacterial activity compared to BSC” value [4] was “comparable antibacterial activity” and the “change in colony forming units (cfu)” value [5] was “eradication”. For the same compound, the “change in colony forming units (cfu)” value [6] was “eradication”, the “change in colony forming units (cfu)” value [7] was “eradication” and the “change in colony forming units (cfu)” value [8] was “eradication”. For the same compound, the “bacterial colonies (cfu) on treated titanium surface” value (from here on “bacterial colonies (cfu)”) [9] was “eradication” and the “bacterial colonies (cfu)” value [10] was “eradication”.

For `CCCCCCCCCCCCCCCCCC[N+](C)(C)CCC[Si](OC)(OC)OC.[Cl-]` [BSC, N-(3-(trimethoxy)silylpropyl)-N,N-dimethyloctadecan-1-ammonium chloride], the “literature MIC values” [11] is given as 84 mg/L, the “concentration at which strain was inhibited” value ([12]; 1% stock solution in H2O, stabilized or no stabilizer) is given as ≤ 100 µg/mL and the “time to eradication compared to the four hours of S1/S2” value [2] is given as “took longer”. For the same compound, the “concentration at which strain was inhibited” value [13] was ≤ 100 µg/mL, the “concentration at which strain was inhibited” value [14] was ≤ 100 µg/mL and the “concentration at which strain was inhibited” value [15] was ≤ 100 µg/mL.

With `CCCCCCCCCCCCCCCCCC[N+](C)(C)CCCP(=O)(OCC)OCC.[Br-]` [compound 2, N-(3-diethoxyphosphorylpropyl)-N,N-dimethyloctadecan-1-ammonium Bromide] the “change in colony forming units (cfu)” value [1] was “eradication”, the “inhibition of S. aureus” value ([12]; 1% solution, even at 100 μg/mL concentrations) was “highly inhibitory” and the “change in colony forming units (cfu)” value [2] was “eradication”. The “visible colonies around or on the samples” value [16] was “no visible colonies”, the “change in colony forming units (cfu)” value [3] was “eradication” and the colony reductions [17] was 10^6 to 0. The “antibacterial activity compared to BSC” value [4] was “comparable antibacterial activity”, the “change in colony forming units (cfu)” value ([4]; after 24 hours) was “completely eradicated” and the “change in colony forming units (cfu)” value [5] was “eradication”. For the same compound, the “change in colony forming units (cfu)” value [6] was “eradication”, the “change in colony forming units (cfu)” value [7] was “eradication” and the “change in colony forming units (cfu)” value [8] was “eradication”. The “bacterial colonies (cfu)” value [9] was “significant reduction of bacterial colonies” and the “bacterial colonies (cfu)” value [10] was “significant reduction of bacterial colonies”.
